Data as given in ChEMBL document CHEMBL5376005, “Gut Metabolite Indoxyl Sulfate Has Selective Deleterious and Anticancer Effect on Colon Cancer Cells” (J Med Chem, 2023).
Where a name gives a salt, the structure may show the parent alone. Active and inactive are the calls of the source. The rule behind the calls is not given here.

Legend:
[1] = tested on: HCT-116; experiment: Cytotoxicity against human HCT-116 cells assessed as cell viability at 10 mM measured after 72 hrs by MTT assay (reference value: 100%); assay type: functional; conditions: HCT-116, 72 h, read-out: Activity
[2] = Toxicity in wild type BALB/c mouse assessed as inflammatory symptoms by measuring change in IL-1beta level at 100 mM, REC measured for 0 to 3 months by ELISA; conditions: in vivo, other, 100000 µM, time 0-3 months
[3] = tested on: HT-29; experiment: Cytotoxicity against human HT-29 cells assessed as cell viability at 10 mM measured after 24 hrs by MTT assay (reference value: 100%); assay type: functional; conditions: HT-29, 24 h, read-out: Activity
[4] = tested on: Cell membrane; experiment: Induction of membrane integrity loss in human HCT-116 cells assessed as increase in LDH release in supernatant incubated for 48 hrs by absorbance based assay; assay type: subcellular; conditions: dose 1.25-10 mM
[5] = Toxicity in wild type BALB/c mouse assessed as reduction in body weight at 100 mM, REC measured after 12 weeks; conditions: in vivo, other, 2016 h, 100000 µM
[6] = tested on: HT-29; experiment: Induction of morphological changes in human HT-29 cells assessed as detachment from substrate at 1.25 to 10 mM incubated for 24 to 72 hrs by bright field microscopy analysis; assay type: functional, cell-based; conditions: dose 1.25-10 mM, time 24-72 hrs
[7] = tested on: HT-29; experiment: Cytotoxicity against human HT-29 cells assessed as cell viability at 10 mM measured after 72 hrs by CellTiter-Glo luminescent cell viability assay (reference value: 100%); assay type: functional; conditions: HT-29, 72 h, read-out: Activity
[8] = tested on: HCT-116; experiment: Induction of cell cycle arrest in human HCT-116 cells assessed as increase in proportion of cells at G2/M phase incubated for 48 hrs by RNase A/Triton X-100/PI staining based flow cytometry analysis; assay type: functional; conditions: dose 1.25-10 mM
[9] = tested on: HT-29; experiment: Induction of cell cycle arrest in human HT-29 cells assessed as increase in proportion of cells at G2/M phase incubated for 48 hrs by RNase A/Triton X-100/PI staining based flow cytometry analysis; assay type: functional; conditions: dose 1.25-10 mM
[10] = tested on: HT-29; experiment: Cytotoxicity against human HT-29 cells assessed as reduction in cell viability at 0.01 to 10 mM by CellTiter-Glo luminescent cell viability assay; assay type: functional, cell-based; conditions: dose 0.01-10 mM, time 48-72 hrs, TDE = time-dependent effect
[11] = tested on: HT-29; experiment: Induction of morphological changes in human HT-29 cells assessed as reduction in cell number at 1.25 to 10 mM incubated for 24 to 72 hrs by bright field microscopy analysis; assay type: functional, cell-based; conditions: dose 1.25-10 mM, time 24-72 hrs
[12] = tested on: HT-29; experiment: Induction of morphological changes in human HT-29 cells assessed as formation of intracellular vesicles at 1.25 to 10 mM incubated for 24 to 72 hrs by bright field microscopy analysis; assay type: functional, cell-based; conditions: dose 1.25-10 mM, time 24-72 hrs
[13] = tested on: HCT-116; experiment: Induction of morphological changes in human HCT-116 cells assessed as reduction in cell number at 1.25 to 10 mM incubated for 24 to 72 hrs by bright field microscopy analysis; assay type: functional, cell-based; conditions: dose 1.25-10 mM, time 24-72 hrs
[14] = Toxicity in wild type BALB/c mouse assessed as histological change in colon at 100 mM, REC measured after 12 weeks by H and E staining based light microscopic analysis; assay type: tissue-based; conditions: in vivo, other, 2016 h, 100000 µM
[15] = Toxicity in wild type BALB/c mouse assessed as inflammatory symptoms by measuring change in IL-17 level at 100 mM, ip measured for 0 to 3 months by ELISA; assay type: organism-based; conditions: in vivo, 100000 µM, time 0-3 months
[16] = tested on: HCT-116; experiment: Induction of apoptosis in human HCT-116 cells assessed as increase in apoptotic cells at 5 mM incubated for 48 hrs by annexin V-FITC/PI staining based flow cytometry analysis (reference value: 3%); assay type: functional
[17] = tested on: HT-29; experiment: Induction of morphological changes in human HT-29 cells assessed as appearance of rounded morphology at 1.25 to 10 mM incubated for 24 to 72 hrs by bright field microscopy analysis; assay type: functional, cell-based; conditions: dose 1.25-10 mM, time 24-72 hrs
[18] = tested on: Cell membrane; experiment: Induction of membrane integrity loss in human HCT-116 cells assessed as LDH release in supernatant at 10 mM incubated for 48 hrs by absorbance based assay relative to control
[19] = tested on: HCT-116; experiment: Cytotoxicity against human HCT-116 cells assessed as reduction in cell viability measured after 48 to 72 hrs by CellTiter-Glo luminescent cell viability assay; assay type: functional, cell-based; conditions: dose 0.01-10 mM, time 48-72 hrs
[20] = tested on: Cell membrane; experiment: Induction of membrane integrity loss in human HT-29 cells assessed as LDH release in supernatant at 5 mM incubated for 48 hrs by absorbance based assay relative to control; assay type: subcellular
[21] = tested on: HCT-116; experiment: Induction of ROS production in human HCT-116 cells incubated for 48 hrs by DHE staining based analysis; assay type: functional, cell-based
[22] = tested on: HCT-116; experiment: Cytotoxicity against human HCT-116 cells assessed as cell viability at 10 mM measured after 24 hrs by MTT assay (reference value: 100%); assay type: functional; conditions: HCT-116, 24 h, read-out: Activity
[23] = tested on: HT-29; experiment: Induction of DNA damage in human HT-29 cells by comet assay; assay type: functional, cell-based
[24] = Toxicity in wild type BALB/c mouse assessed as inflammatory symptoms by measuring change in fecal consistency at 100 mM, REC measured after 12 weeks; conditions: in vivo, other, 2016 h, 100000 µM
[25] = tested on: HT-29; experiment: Induction of apoptosis in human HT-29 cells assessed as increase in apoptotic cells at 5 mM incubated for 48 hrs by annexin V-FITC/PI staining based flow cytometry analysis (reference value: 3%); assay type: functional
[26] = tested on: Cell membrane; experiment: Induction of membrane integrity loss in human HT-29 cells assessed as LDH release in supernatant at 10 mM incubated for 48 hrs by absorbance based assay relative to control; assay type: subcellular
[27] = Toxicity in wild type BALB/c mouse assessed as histological change in colon at 100 mM, ip measured after 12 weeks by H and E staining based light microscopic analysis; assay type: organism-based; conditions: in vivo, 2016 h, 100000 µM
[28] = tested on: HCT-116; experiment: Induction of morphological changes in human HCT-116 cells assessed as appearance of rounded morphology at 1.25 to 10 mM incubated for 24 to 72 hrs by bright field microscopy analysis; assay type: functional, cell-based; conditions: dose 1.25-10 mM, time 24-72 hrs
[29] = tested on: HCT-116; experiment: Induction of cell cycle arrest in human HCT-116 cells assessed as increase in proportion of cells at G2/M phase at 5 mM incubated for 48 hrs by RNase A/Triton X-100/PI staining based flow cytometry analysis relative to control; assay type: functional
[30] = Toxicity in wild type BALB/c mouse assessed as reduction in body weight at 100 mM, ip measured after 12 weeks; assay type: organism-based; conditions: in vivo, 2016 h, 100000 µM
[31] = tested on: HT-29; experiment: Induction of morphological changes in human HT-29 cells assessed as loss of adhesion with free floating in medium at 10 mM incubated for 24 to 72 hrs by bright field microscopy analysis; assay type: functional, cell-based; conditions: time 24-72 hrs

O=S(=O)(O)Oc1c[nH]c2ccccc12 [INDOXYL SULFATE]
viability at 10000 µM [1]: 4% | Activity [2]: Non-Toxic | viability at 10000 µM [3]: 41% | Activity [4]: Dose-Dependent Effect | Activity [5]: Non-Toxic | Activity [6]: Active | viability at 10000 µM [7]: 19% | Activity [8]: Dose-Dependent Effect | Activity [9]: Dose-Dependent Effect | Activity [10]: Tde | Activity [11]: Active | Activity [12]: Active | Activity [13]: Active | Activity [14]: Non-Toxic | Activity [15]: Non-Toxic | Activity [16]: 9% | Activity [17]: Active | Activity [18]: 86% | Activity [19]: Dose-Dependent Effect | Activity [20]: 82% | Activity [21]: inactive | viability at 10000 µM [22]: 30% | Activity [23]: inactive | Activity [24]: Non-Toxic | Activity [25]: 8% | Activity [26]: 85% | Activity [27]: Non-Toxic | Activity [28]: Active | Activity [29]: 18.1% | Activity [30]: Non-Toxic | Activity [31]: Active
